Data: US11505558B1, “Antiviral heterocyclic compounds” (Enanta Pharmaceuticals, Inc., priority 2019, dated 2022)
Read-outs that look alike come from different tables or passages of the source.

Key:
[1] = tested on: genotype A, "Long" strain RSV; assay: RSV-A assay (CPE, ATPlite readout in Hep-2 cells); format: cell-based; conditions: human respiratory syncytial virus
Summary of the method: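 Protection from RSV-induced cytopathic effect, measured as ATPlite luminescence after 5 days, gave EC50 values. Assay used genotype A Long strain at MOI 0.1 on Hep-2 cells seeded at 8,000/well in DMEM growth media with 10% FBS; compounds tested as 2-fold dilutions in duplicate.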

[2] = tested on: recombinant HMPV CAN97-83 (MPV-GFP1); assay: HMPV antiviral assay (MPV-GFP1 eGFP fluorescence in Vero E6 cells); format: cell-based; conditions: human metapneumovirus, Vero C1008, 120 h, read-out: HMPV EC50
Summary of the method: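 Vero E6 cells in serum-free OptiMEM with 0.5 μg/mL TPCK-trypsin infected with eGFP-expressing HMPV CAN97-83 (MPV-GFP1) at MOI 0.05. 8-point […] ½-step dilutions from 8 or 2 μM, 0.5% DMSO, 5 days at 32 °C. eGFP fluorescence normalized to infected untreated wells; EC50 from four-parameter logistic fit.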

[3] = HEp-2, Hep-2 cells, genotype A "Long" strain RSV, MOI 0.1, read-out: Human RSV-A (“Long” strain) EC50

| SMILES | EC50 [1, 3] [nM] | EC50 [2] [nM] | EC50 ([1]; HEp-2, read-out: Human RSV-A (“Long” strain) EC50) [nM] |
| --- | --- | --- | --- |
| COc1cc(C(=O)NC[C@](O)(c2cc3c(c(-c4ccc(F)cc4)n2)OC[C@]3(C)C(N)=O)C(F)(F)F)cc2c1OCCC2 [Example 508] | > 200 | < 500 |  |
| COc1cc(C(=O)NC[C@](O)(c2cc3c(c(-c4ccc(F)cc4)n2)OC[C@]3(C)C(N)=O)C(F)(F)F)cc2cc(F)cnc12 [Example 518] | < 200 | > 500 |  |
| COc1cc(C(=O)NC[C@](O)(c2cc3c(c(-c4ccc(F)cc4)n2)OC[C@]3(C)C(N)=O)C(F)(F)F)cc2cc(C3CC3)cnc12 [Example 519] | < 200 | < 500 |  |
| COc1cc(C(=O)NC[C@](O)(c2cc3c(c(-c4ccc(F)cc4)n2)OC[C@]3(C)C(N)=O)C(F)(F)F)cc2cc(Cl)cnc12 [Example 520] | < 200 | < 500 |  |
| C[C@]1(C(N)=O)COc2c1cc([C@@](O)(CNC(=O)c1cc(OC3CC3)c3ncc(Cl)cc3c1)C(F)(F)F)nc2-c1ccc(F)cc1 [Example 521] | < 200 | < 500 |  |
| COc1cc(C(=O)NC[C@](O)(c2cc3c(c(-c4ccc(F)cc4)n2)OC[C@]3(C)C(N)=O)C2CC2)cc2cc(C3CC3)cnc12 [Example 522] | < 200 | < 500 |  |
| COc1cc(C(=O)NC[C@](O)(c2cc3c(c(-c4ccc(F)c(Cl)c4)n2)OC[C@]3(C)C(N)=O)C2CC2)cc2cc(C3CC3)cnc12 [Example 523] | < 200 | < 500 |  |
| Cc1cnc2ccc(C(=O)NC[C@](O)(c3cc4c(c(-c5ccc(F)cc5)n3)OC[C@]4(C)C(N)=O)C(F)(F)F)cc2c1 [Example 524] | < 200 | < 500 |  |
| C[C@]1(C(N)=O)COc2c1cc([C@@](O)(CNC(=O)c1ccc3ncc(Cl)cc3c1)C(F)(F)F)nc2-c1ccc(F)cc1 [Example 526] | < 200 | < 500 |  |
| C[C@]1(C(N)=O)COc2c1cc([C@@](O)(CNC(=O)c1ccc3ncc(F)cc3c1)C(F)(F)F)nc2-c1ccc(F)cc1 [Example 527] | < 200 | > 500 |  |
| COc1cc(C(=O)NC[C@](O)(c2cc3c(c(-c4ccc(F)cc4)n2)OC[C@]3(C)C(N)=O)C2CC2)cc2cc(Cl)cnc12 [Example 528] | < 200 | < 500 |  |
| COc1cc(C(=O)NC[C@](O)(c2cc3c(c(-c4ccc(F)c(Cl)c4)n2)OC[C@]3(C)C(N)=O)C2CC2)cc2cc(Cl)cnc12 [Example 529] | < 200 | < 500 |  |
| C[C@]1(C(N)=O)COc2c1cc([C@@](O)(CNC(=O)c1cc(OC3CC3)c3ncc(Cl)cc3c1)C1CC1)nc2-c1ccc(F)cc1 [Example 530] | < 200 | < 500 |  |
| C[C@]1(C(N)=O)COc2c1cc([C@@](O)(CNC(=O)c1cc(OC3CC3)c3ncc(Cl)cc3c1)C1CC1)nc2-c1ccc(F)c(Cl)c1 [Example 531] | < 200 | < 500 |  |
| COc1cc(C(=O)NC[C@](O)(c2cc3c(c(-c4ccc(F)c(Cl)c4)n2)OC[C@]3(C)C(N)=O)C(F)(F)F)cc2cc(C3CC3)cnc12 [Example 532] | < 200 | < 500 |  |
| COc1cc(C(=O)NC[C@](O)(c2cc3c(c(-c4ccc(F)cc4)n2)OC[C@]3(C)C(N)=O)C(F)(F)F)cc2cc(C)c(C)nc12 [Example 533] | < 200 | < 500 |  |
| COc1cc(C(=O)NC[C@](O)(c2cc3c(c(-c4ccc(F)c(Cl)c4)n2)OC[C@]3(C)C(N)=O)C(F)(F)F)cc2cc(C)c(C)nc12 [Example 534] | < 200 | < 500 |  |
| COc1cc(C(=O)NC[C@](O)(c2cc3c(c(-c4ccc(F)cc4)n2)OC[C@]3(C)C(N)=O)C2CC2)cc2cc(C(F)(F)F)cnc12 [Example 535] | < 200 | < 500 |  |
| COc1cc(C(=O)NC[C@](O)(c2cc3c(c(-c4ccc(F)c(Cl)c4)n2)OC[C@]3(C)C(N)=O)C2CC2)cc2cc(C(F)(F)F)cnc12 [Example 536] | < 200 | < 500 |  |
| C[C@]1(C(N)=O)COc2c1cc([C@@](O)(CNC(=O)c1cc(OC(F)F)c3nc(N)sc3c1)C(F)(F)F)nc2-c1ccc(F)cc1 [Example 537] | < 200 | > 500 |  |
| CC(C)Oc1cc(C(=O)NC[C@](O)(c2cc3c(c(-c4ccc(F)cc4)n2)OC[C@]3(C)C(N)=O)C(F)(F)F)cc2sc(N)nc12 [Example 538] | < 200 | > 500 |  |
| C[C@]1(C(N)=O)COc2c1cc([C@@](O)(CNC(=O)c1cc(OC(F)F)c3nc(N)sc3c1)C1CC1)nc2-c1ccc(F)cc1 [Example 539] | < 200 | < 500 |  |
| C[C@]1(C(N)=O)COc2c1cc([C@@](O)(CNC(=O)c1cc(OC(F)F)c3nc(N)sc3c1)C1CC1)nc2-c1ccc(F)c(Cl)c1 [Example 540] | < 200 | < 500 |  |

| SMILES | EC50 [1, 3] [nM] | EC50 [2] [nM] | EC50 ([1]; HEp-2, read-out: Human RSV-A (“Long” strain) EC50) [nM] |
| --- | --- | --- | --- |
| C[C@]1(C(N)=O)COc2c1cc([C@@](O)(CNC(=O)c1cc(OC(F)(F)F)c3nc(N)sc3c1)C(F)(F)F)nc2-c1ccc(F)cc1 [Example 541] | < 200 | > 500 |  |
| C[C@]1(C(N)=O)COc2c1cc([C@@](O)(CNC(=O)c1cc(OC(F)(F)F)c3nc(N)sc3c1)C(F)(F)F)nc2-c1ccc(F)c(Cl)c1 [Example 542] | < 200 | < 500 |  |
| C[C@]1(C(N)=O)COc2c1cc([C@@](O)(CNC(=O)c1cc(OC3CC3)c3nc(N)sc3c1)C(F)(F)F)nc2-c1ccc(F)cc1 [Example 543] | < 200 | < 500 |  |
| C[C@]1(C(N)=O)COc2c1cc([C@@](O)(CNC(=O)c1cc(OC3CC3)c3nc(N)sc3c1)C(F)(F)F)nc2-c1ccc(F)c(Cl)c1 [Example 544] | < 200 | < 500 |  |
| Cc1cnc2c(Nc3cnccn3)cc(C(=O)NC[C@](O)(c3cc4c(c(-c5ccc(F)cc5)n3)OC[C@]4(C)C(N)=O)C(F)(F)F)cc2c1 [Example 547] | < 200 | > 500 |  |
| Cc1cnc2c(Nc3cncnc3)cc(C(=O)NC[C@](O)(c3cc4c(c(-c5ccc(F)cc5)n3)OC[C@]4(C)C(N)=O)C(F)(F)F)cc2c1 [Example 548] | < 200 | > 500 |  |
| Cc1cnc2c(OC(=O)NC3(C)COC3)cc(C(=O)NC[C@](O)(c3cc4c(c(-c5ccc(F)cc5)n3)OC[C@]4(C)C(N)=O)C(F)(F)F)cc2c1 [Example 549] |  | > 500 | < 200 |
| Cc1cnc2c(NC(=O)NC3(C)CC3)cc(C(=O)NC[C@](O)(c3cc4c(c(-c5ccc(F)cc5)n3)OC[C@]4(C)C(N)=O)C(F)(F)F)cc2c1 [Example 550] | < 200 | < 500 |  |
| Cc1cnc2c(NC(=O)NCC(C)(C)O)cc(C(=O)NC[C@](O)(c3cc4c(c(-c5ccc(F)cc5)n3)OC[C@]4(C)C(N)=O)C(F)(F)F)cc2c1 [Example 551] | < 200 | > 500 |  |
| Cc1cnc2c(NC(=O)C3(C)CC3)cc(C(=O)NC[C@](O)(c3cc4c(c(-c5ccc(F)cc5)n3)OC[C@]4(C)C(N)=O)C(F)(F)F)cc2c1 [Example 552] | < 200 | < 500 |  |
| Cc1cnc2c(NC(=O)C3(F)CC3)cc(C(=O)NC[C@](O)(c3cc4c(c(-c5ccc(F)cc5)n3)OC[C@]4(C)C(N)=O)C(F)(F)F)cc2c1 [Example 553] | < 200 | < 500 |  |
| COc1cc(C(=O)NC[C@](O)(c2cc3c(c(-c4ccc(F)cc4)n2)OC[C@]3(C)C(N)=O)C(F)(F)F)cc2cc(C(F)(F)F)cnc12 [Example 557] | < 200 | < 500 |  |
| COc1cc(C(=O)NC[C@](O)(c2cc3c(c(-c4ccc(F)c(Cl)c4)n2)OC[C@]3(C)C(N)=O)C(F)(F)F)cc2cc(C(F)(F)F)cnc12 [Example 558] | < 200 | < 500 |  |
| Cc1cnc2c(Nc3cccnn3)cc(C(=O)NC[C@](O)(c3cc4c(c(-c5ccc(F)cc5)n3)OC[C@]4(C)C(N)=O)C(F)(F)F)cc2c1 [Example 560] | < 200 | < 500 |  |
| Cc1cnc2c(NC(=O)c3ncco3)cc(C(=O)NC[C@](O)(c3cc4c(c(-c5ccc(F)cc5)n3)OC[C@]4(C)C(N)=O)C(F)(F)F)cc2c1 [Example 561] | < 200 | < 500 |  |
| COc1cc(C(=O)NC[C@](O)(c2cc3c(c(-c4ccc(F)cc4)n2)OC[C@]3(C)C(N)=O)C(F)(F)F)cc2sc(C)nc12 [Example 562] | < 200 | < 500 |  |
| C[C@]1(C(N)=O)COc2c1cc([C@@](O)(CNC(=O)c1ccc3[nH]ncc3c1)C(F)(F)F)nc2-c1ccc(F)cc1 [Example 588] | < 200 | > 500 |  |
| COc1cccc2[nH]c(C(=O)NC[C@](O)(c3cc4c(c(-c5ccc(F)cc5)n3)OC[C@]4(C)C(N)=O)C(F)(F)F)cc12 [Example 595] | < 200 | < 500 |  |
| Cc1nc2cc(C(=O)NC[C@](O)(c3cc4c(c(-c5ccc(F)cc5)n3)OC[C@]4(C)C(N)=O)C(F)(F)F)ccc2[nH]1 [Example 600] | < 200 | > 500 |  |
| Cc1cnc2c(Nc3ncncn3)cc(C(=O)NC[C@](O)(c3cc4c(c(-c5ccc(F)cc5)n3)OC[C@]4(C)C(N)=O)C(F)(F)F)cc2c1 [Example 611] | < 200 | > 500 |  |
| Cc1cnc2c(Nc3nccnn3)cc(C(=O)NC[C@](O)(c3cc4c(c(-c5ccc(F)cc5)n3)OC[C@]4(C)C(N)=O)C(F)(F)F)cc2c1 [Example 613] | < 200 | < 500 |  |
| Cc1cnc2c(Oc3ncccn3)cc(C(=O)NC[C@](O)(c3cc4c(c(-c5ccc(F)cc5)n3)OC[C@]4(C)C(N)=O)C(F)(F)F)cc2c1 [Example 615] | < 200 | > 500 |  |
| Cc1cc2cc(C(=O)NC[C@](O)(c3cc4c(c(-c5ccc(F)cc5)n3)OC[C@]4(C)C(N)=O)C(F)(F)F)ccc2nn1 [Example 616] | < 200 | < 500 |  |
